Patent US11980598B2, “N-(2-(substituted-naphth-1-yl)ethyl) substituted amide compound, preparation and uses thereof” (BEIJING GREATWAY PHARMACEUTICAL TECHNOLOGY CO., LTD., priority 2017, dated 2024)

Key:
Assay type in all cases: in vivo
chronic stress rat [1] = assay: Chronic unpredictable stress model of rat: sucrose preference test; conditions: for Sucrose preference (%) Before modeling: baseline before modeling; for Sucrose preference (%) After 4 weeks of administration: stress rats
Protocol: (§1) Animals: SD rats, male, weighing 150-180 g, SPF grade.
(§2) Formulation and administration mode of drugs: All drugs for the test were suspended and dispersed with a 0.5% aqueous solution of CMC-Na, and shaken well before use. The rats were administered by i.g. at a volume of 10 mL/kg.
(§3) Rats were acclimatized for 3 days after purchase. First, 48 h of sucrose training was performed. After the training, a sucrose baseline test was performed. The rats were randomly and evenly grouped according to sucrose preference. Then, (dl) a 4-week chronic unpredictable stress (CUS) procedure was performed with the following stress methods: (1) food deprivation (fasting); (2) water deprivation; (3) stroboflash; (4) overnight illumination; (5) wet feeding (200 ml of water was added to 150 g of sawdust bedding); (6) noise stimulation (110 dB), 1 h; (7) swimming in cold water (the water temperature was 10° C.); (8) cage tilt (45 degrees of inclination); (9) tail pinch (at 1 cm away from the tail root) for 6 min; (10) restraint for 1-2 h. One of the above stress methods was used randomly every day, but water deprivation and fasting were separated. The corresponding drugs (including the blank control group and the positive drug group) were given 1 h before the stress in the morning every day. Behavior test was performed after the end of the chronic stress. d25, sucrose preference; d28, open-field; d31, novelty-suppressed feeding test.
Rats were acclimatized for 3 days after purchase. The rats were trained to give sucrose aqueous solution for 48 h without food and water supply, only 1% aqueous solution of sucrose was given for the first 24 h, and 1% aqueous solution of sucrose and tap water were simultaneously given for the next 24 h. After the end of the training, the rats were fed with normal food and water for 3 days, and then a sucrose preference baseline was determined: after fasting and water deprivation for 14 h, rats were allowed to drink freely two different bottles of water, one of which was 1% aqueous solution of sucrose and the other was tap water. The intakes (g) of rats from these two bottles within 1 hour were measured to calculate the sucrose preference. Sucrose preference (%)=intake of aqueous solution of sucrose/(intake of aqueous solution of sucrose+intake of tap water)×100%. On the 25th day of the stress program, the same method was used to perform the sucrose preference test again to calculate the sucrose preference.

SD rats [2] = assay: Anxiety behavior model of repeatedly administrated rat: O-maze test; conditions: D21, 5 minutes
Protocol: The requirements for test animals, drug formulation and administration were the same as those of the rat chronic mild stress model.
Instruments: Vogel drinking anxiety device for rat and O-maze device for rat were manufactured by Shanghai XinRuan Company. The rat feeding chamber was a home-made white plastic box (60×45×25 cm).
The rats were administrated continuously by i.g. once a day. A novelty-suppressed feeding test, a Vogel drinking conflict test, and an O-maze test were performed on a different day, respectively. Each behavior test was performed at 9:00-12:00, and the administration time was 16:00-17:00. The test process was as follows: D12, novelty-suppressed feeding test (animals were fasted for 48 hours before the test); D18, Vogel drinking conflict test (animals were banned from water for 48 hours before the test); D21, O-maze test.
An O-maze device was placed in the center of a dark room and illuminated with an infrared light during the test. The animal was placed in the center of a closed arm of an O-maze track, timed for 5 minutes, and the activity of the rat in the maze was monitored by an infrared camera. Animals in each group were given a single intragastric administration 60 min before the test. Observation indicators were the number of times the rat entered the open arm and the accumulated dwell time in the open arm.

SD rats [3] = assay: Forced rat swimming test; conditions: 10 mg/kg i.g., 3 days, last 5 of 6 min
Protocol: Animals: Kunming mice, male, body weight 18-22 g, SPF grade; SD rats, male, body weight 150-180 g, SPF grade. The test was carried out after acclimatization, and the animal was fasted for 12 hours before the test.
All drugs for the test were suspended and dispersed in a 1% aqueous solution of hydroxypropyl methylcellulose (HPMC), and shaken well before use. […] The doses for administration were all 10 mg/kg. For the concentration and volume for administration, see J Psychiatry Neurosci 2004; 29(2):126-133. The mice were intraperitoneally administered in a volume of 0.5 mL/20 g; and the rats were administered by i.g. in a volume of 2 mL/100 g.
Rats were randomly divided into groups according to weight balance. Rats were administered by i.g. for three consecutive days, once a day. One hour after administration on the third day, the forced swimming test was performed. The rats were placed in a round glass jar with a height of 40 cm, an inner diameter of 18 cm, a water depth of 23 cm, and a water temperature of 25° C. The rats were allowed to swim for 6 minutes, and the accumulated immobility time in the last 5 minutes was recorded.

Kunming mice = assay: Acute toxicity test of mouse
Protocol: Mice were administered by i.g. at doses of 5000 mg/kg and 2000 mg/kg. The drugs were dispersed with a 1% aqueous solution of hydroxypropyl methylcellulose (HPMC), and the administration volume was calculated in accordance with 0.2 mL/10 g.

chronic stress rat [4] = assay: Chronic unpredictable stress model of rat: open-field activity test; conditions: stress rats, day 28, 5 min
Protocol: as §1, §2, §3
On the 28th day of the stress program, the rats were placed in the middle compartment of an open chamber, and a 60 W light bulb was placed 45 cm directly above them. The activities of the rats were observed within 5 minutes, including the number of times crossing a compartment horizontally (the number of times crossing into an adjacent compartment with three or more claws), and the number of times rearing (the number of times the forelimbs are more than 1 cm off the ground). Note: the test environment of the test should be kept as quiet as possible; the rats should be placed in the same position and direction each time; and the animal's excretion should be removed after each test.

SD rats [5] = assay: Acute toxicity test of rat; conditions: for Acute reaction after single administration / Adverse reactions during 14-day observation / Body weight compared with the blank group: rats, 2000 mg/kg i.g.
Protocol: Rats were administered by i.g. at a dose of 2000 mg/kg. The drugs were dispersed with a 1% aqueous solution of hydroxypropyl methylcellulose (HPMC).

Structure (SMILES) | Sucrose preference (%) Before modeling (chronic stress rat [1]; group later dosed 20 mg/kg) [%] | Sucrose preference (%) After 4 weeks of administration (chronic stress rat [1]; 10 mg/kg i.g. daily) [%] | Sucrose preference (%) After 4 weeks of administration (chronic stress rat [1]; 20 mg/kg i.g. daily) [%] | Sucrose preference (%) After 4 weeks of administration (chronic stress rat [1]; 40 mg/kg i.g. daily) [%] | Dwell time in the open arm (SD rats [2]; 10 mg/kg i.g.) [s] | Number of times entering the open arm (SD rats [2]; 10 mg/kg i.g.) | Dwell time in the open arm (SD rats [2]; 20 mg/kg i.g.) [s] | Number of times entering the open arm (SD rats [2]; 20 mg/kg i.g.) | Dwell time in the open arm (SD rats [2]; 40 mg/kg i.g.) [s] | Number of times entering the open arm (SD rats [2]; 40 mg/kg i.g.) | Immobility time (SD rats [3]) [s] | Acute reaction after single administration (Kunming mice; mice, 2000 mg/kg i.g.) | Adverse reactions during 14-day observation (Kunming mice; mice, 2000 mg/kg i.g.) | Body weight compared with the blank group (Kunming mice; mice, 2000 mg/kg i.g.) | Acute reaction after single administration (Kunming mice; mice, 5000 mg/kg i.g.) | Number of times crossing a compartment horizontally (chronic stress rat [4]; 10 mg/kg i.g. daily) | Number of times rearing (chronic stress rat [4]; 10 mg/kg i.g. daily) | Number of times crossing a compartment horizontally (chronic stress rat [4]; 20 mg/kg i.g. daily) | Number of times rearing (chronic stress rat [4]; 20 mg/kg i.g. daily) | Number of times crossing a compartment horizontally (chronic stress rat [4]; 40 mg/kg i.g. daily) | further results
COc1ccc2cccc(CCNC(C)=O)c2c1 [Agomelatine, reference compound] | 65.6 ± 10.1 | 84.3 ± 3.6 | 66.6 ± 6.7 | 76.1 ± 5.3 | 126 ± 15 | 2.25 ± 0.4 | 196 ± 30 | 3.1 ± 0.8 | 170 ± 29 | 6.2 ± 1.0 | 73.5 ± 38.5 | the mice all fell into a coma 15 minutes after the administration | no obvious adverse reactions within 14 days after the administration | the body weight was lighter on the first and second days after the administration with a significant difference | the mice all fell into a coma 15 minutes after the administration and died successively after 12 hours | 33.4 ± 4.2 | 18.1 ± 1.1 | 33.9 ± 2.4 | 16.7 ± 1.8 | 38.9 ± 3.6 | Number of mice that died within 12 hours (Kunming mice; mice, 2000 mg/kg i.g., group of 10): 4 mice; Number of times rearing (chronic stress rat [4]; 40 mg/kg i.g. daily): 17.3 ± 1.1; Acute reaction after single administration (SD rats [5]): 8 rats were slow to move or became lethargic, and all returned to normal within 2 hours; Adverse reactions during 14-day observation (SD rats [5]): no obvious adverse reactions within 14 days after the administration; Body weight compared with the blank group (SD rats [5]): no significant difference in body weight compared with the blank group
[2H]C([2H])([2H])Oc1cc2c(CCNC(C)=O)cccc2cc1Cl [Example 1, N-(2-(6-chloro-7-deuteromethoxy-naphthalen-1-yl)ethyl)acetamide] | 60.1 ± 4.4 | 78.4 ± 4.4 | 78.8 ± 6.1 | 83.3 ± 1.9 | 201 ± 17 | 8.8 ± 0.9 | 245 ± 6 | 10.89 ± 0.7 | 171 ± 27 | 6.3 ± 1.1 | 51.0 ± 32.4 | the activity of the mice became slightly smaller but there were no obvious adverse reactions | no obvious adverse reactions within 14 days after the administration | no significant difference in body weight compared with the blank group | the mice began to fall into a coma 15 minutes after the administration, and within 24 hours the mice all awakened and returned to normal | 36.4 ± 4.2 | 14.6 ± 1.7 | 36.5 ± 2.9 | 15.9 ± 1.1 | 34.9 ± 3.0 | Sucrose preference (%) Before modeling (chronic stress rat [1]; group later dosed 5 mg/kg): 55.5 ± 7.8%; Sucrose preference (%) After 4 weeks of administration (chronic stress rat [1]; 5 mg/kg i.g. daily): 80.4 ± 3.1 %; Dwell time in the open arm (SD rats [2]; 5 mg/kg i.g.): 131 ± 30 s; Number of times entering the open arm (SD rats [2]; 5 mg/kg i.g.): 4.8 ± 0.9; Adverse reactions during 14-day observation (Kunming mice; mice, 5000 mg/kg i.g.): no obvious adverse reactions within 14 days after the administration; Body weight compared with the blank group (Kunming mice; mice, 5000 mg/kg i.g.): no significant difference in body weight compared with the blank group; Safety compared with control drug (Kunming mice; mouse model, overall): safer than the control drug Agomelatine; Number of times crossing a compartment horizontally (chronic stress rat [4]; 5 mg/kg i.g. daily): 36.8 ± 4.4; Number of times rearing (chronic stress rat [4]; 5 mg/kg i.g. daily): 15.1 ± 1.3; Number of times rearing (chronic stress rat [4]; 40 mg/kg i.g. daily): 17 ± 1.5; Safety compared with control drug (SD rats [5]; rat model, overall): safer than the control drug Agomelatine; Acute reaction after single administration (SD rats [5]): the activity of the rats became slightly smaller but there were no obvious adverse reactions; Adverse reactions during 14-day observation (SD rats [5]): no obvious adverse reactions within 14 days after the administration; Body weight compared with the blank group (SD rats [5]): no significant difference in body weight compared with the blank group
